# In patent publication US5612317A, “Method for delivering estrogen” (priority 1994, dated 1997):
# Experiments:
# [1] = Side-effects and vaginal bleeding in ovariectomized rats dosed orally for two weeks; format: in vivo
# Text: Based on the results in rats and humans with the model vitamin D-3β-glucoside and experience with giving estradiol-3-(β-glucoside) to ovariectomized rats, there is no indication of potential additive or multiplicative toxicity.
# estradiol receptor = details: "there is evidence"; no method given; cited from earlier work
# [2] = injected into normal women; cited from earlier work
# [3] = Incubation of 3H-vitamin D3-glucoside with rat intestinal homogenate, reverse phase HPLC; format: in vitro ADME; details: 3 hours at 37° C
# Description: FIG. 1A and FIG. 1B depict reverse phase HPLC (2% H2 O/methanol, 1.5 ml/min) of ^3 H-vitamin D3 -glucoside before (FIG. 1A) and after (FIG. 1B) incubation with rat intestinal homogenate for 3 hours at 37° C.
# (§1) A study was conducted whereby ^3 H-vitamin D3 -3β-glucoside was incubated with intestine and kidney homogenates. […] Therefore, the same results for estradiol-3β-glucoside would be expected since vitamin D and estradiol are both fat soluble sterols.
# [4] = Incubation of 3H-vitamin D3-glucoside with rat kidney homogenate, reverse phase HPLC; format: in vitro ADME; details: 3 hours at 37° C
# Description: FIG. 1C depicts reverse phase HPLC (2% H2 O/methanol, 1.5 ml/min) of ^3 H-vitamin D3 -glucoside after incubation with rat kidney homogenate for 3 hours at 37° C.
# as §1
# [5] = Circulating concentration of 17β-estradiol and estrone in ovariectomized rats after daily oral dosing for two weeks (radioimmunoassay); format: in vivo; details: six ovariectomized rats per group
# Description: De-conjugation of estradiol-3-(β-glucoside) to estradiol will occur slowly in peripheral tissues, and therefore, will maintain circulating levels of estradiol at a more physiologic level for a longer period of time. A study in humans with the vitamin D-3β-glucoside was conducted as a model compound. The blood level of vitamin D after an equimolar dose of vitamin D3 and vitamin D3 -3β-glucoside was compared. […] Thus, from this single dose vitamin D-glucoside study, there would not appear to be any hazard to the prolonged duration of action of the estradiol resulting from the slow de-conjugation of the estradiol-3-(β-glucoside). A study in ovariectomized rats was also conducted to determine the blood level of estradiol and estrone after receiving three different doses of either estradiol or estradiol-3-(β-glucoside) orally each day for two weeks. […] Thus, estradiol-3-(β-glucoside) will increase circulating concentrations of estradiol.
# In vivo rat studies were carried out where estradiol-3-(β-glucoside) was given orally for two weeks to ovariectomized rats.
# Circulating concentration of 17β-estradiol and estrone
# in six ovariectomized rats per group that received an oral
# dose of either 17β-estradiol or 17β-estradiol-3 β-
# glucoside (estradiol-glc) each day for two weeks.
# [6] = listed as 3 H-vitamin D3 -glucoside
smiles,measurement,setting,value
"C[C@]12CC[C@@H]3c4ccc(O[C@@H]5O[C@H](CO)[C@@H](O)[C@H](O)[C@H]5O)cc4CC[C@H]3[C@@H]1CC[C@@H]2O [estradiol-glc, 17β-estradiol-3β-glucoside]",Untoward side-effects or vaginal bleeding,"[1]; rat, in vivo, po",No untoward side-effects or vaginal bleeding was noted
same,Interaction with the estradiol receptor,estradiol receptor,does not interact with the estradiol receptor
C[C@]12CC[C@@H]3c4ccc(O)cc4CC[C@H]3[C@@H]1CC[C@H]2O[C@@H]1O[C@H](CO)[C@@H](O)[C@H](O)[C@H]1O [17α-estradiol-17-glucoside],Metabolite recovered in urine,[2],the 3-glucuronide derivatives of each compound were recovered in the urine
C=C1CC[C@H](O[C@@H]2O[C@H](CO)[C@@H](O)[C@H](O)[C@H]2O)C/C1=C/C=C1\CCC[C@]2(C)[C@@H]([C@H](C)CCCC(C)C)CC[C@@H]12 [vitamin D3 -3β-glucoside],Metabolism of the glucoside / formation of 3H-vitamin D3,[3],None of the vitamin D3 -3β-glucoside was metabolized in the intestinal homogenates
same,Metabolism of the glucoside / formation of 3H-vitamin D3,[3]; [6],No ^3 H-vitamin D3 was formed
same,De-conjugation of the glucoside / formation of 3H-vitamin D3,[4]; listed as 3 H-vitamin D3 -3β-glucoside,only the kidney homogenate was capable of removing the glucoside from vitamin D3
same,De-conjugation of the glucoside / formation of 3H-vitamin D3,[4]; [6],formation of ^3 H-vitamin D3
same,De-conjugation of the glucoside / formation of 3H-vitamin D3,[4]; listed as vitamin D-3β-glucoside,β-glucosidase(s) in the kidney are able to de-conjugate the β-glucoside from the vitamin D-3β-glucoside
"C[C@]12CC[C@@H]3c4ccc(O)cc4CC[C@H]3[C@@H]1CC[C@@H]2O [estradiol, 17β-estradiol, reference compound]",Untoward side-effects or vaginal bleeding,"[1]; oral, two weeks, ovariectomized rats",No untoward side-effects or vaginal bleeding was noted
same,Blood concentration of estradiol,"[5]; dose 1, each day for two weeks",3.5 ± 0.7 pg/mL
same,Blood concentration of estradiol,"[5]; dose 10, each day for two weeks",8.7 ± 2.1 pg/mL
same,Blood concentration of estradiol,"[5]; dose 15, each day for two weeks",46.8 ± 10.4 pg/mL
C[C@]12CC[C@@H]3c4ccc(O)cc4CC[C@H]3[C@@H]1CC[C@@H]2OC1O[C@H](CO)[C@@H](O)[C@H](O)[C@H]1O (stereo partly drawn) [17β-estradiol-17-glucoside],Metabolite recovered in urine,[2],the 3-glucuronide derivatives of each compound were recovered in the urine
